Assays:
[1] = tested on: MuSCs; experiment: Senescence and apoptosis marker staining of MuSCs from NR-treated mice (γH2AX, β-galactosidase, cleaved CASP3); type: cell-based, C57BL/6J mice
Protocol: Histology. TA muscles were harvested and the immunestaining was performed as described in Example 2. The following antibodies were used: anti-γH2AX […] (Millipore), anti-activated-caspase3 (Cell signaling). Secondary antibodies were coupled to Alexa-488 or Alexa-568 fluorochromes (Life technology), and nuclei were stained with DAPI (Invitrogen). β-galactosidase assay. MuSCs were sorted directly and cultured primary MuSCs were grown on 8 chamber slides (Thermo Scientific). Senescence-associated β-galactosidase activity was detected using the senescence β-galactosidase staining kit (Cell signaling), according to manufacturer's instructions. Cell culture and treatments. FACS sorted MuSCs were grown on a 10% Matrigel (Corning)-coated dish and flasks with Fams F-10 media (Gibco), supplemented with 20% fetal bovine serum (FBS, Gibco), 2.5 ng/ml basic fibroblast growth factor (bFGF, Sigma) and penicillin/streptomycin (1×, Gibco). Dishes were coated with 10% growth factor-free Matrigel solution on ice for 7 min then transferred to a 37° C. cell culture incubator overnight before use. Cells were grown for three generations in vitro before experiments with cells plated and passaged at 10^3 cells/ml and 50% confluencies, respectively. C2C12 mouse myoblasts were grown in DMEM (4.5 g/1 glucose, Gibco) supplemented with 10% FBS and penicillin/streptomycin (1×, Gibco).

[2] = tested on: C2C12 myoblasts; experiment: Western blot of senescence and apoptosis markers in C2C12 myoblasts; type: cell-based, mouse; settings: late passage C2C12 myoblasts, 6-hour NR treatment
Protocol: Cell culture and treatments. FACS sorted MuSCs were grown on a 10% Matrigel (Corning)-coated dish and flasks with Fams F-10 media (Gibco), supplemented with 20% fetal bovine serum (FBS, Gibco), 2.5 ng/ml basic fibroblast growth factor (bFGF, Sigma) and penicillin/streptomycin (1×, Gibco). Dishes were coated with 10% growth factor-free Matrigel solution on ice for 7 min then transferred to a 37° C. cell culture incubator overnight before use. Cells were grown for three generations in vitro before experiments with cells plated and passaged at 10^3 cells/ml and 50% confluencies, respectively. C2C12 mouse myoblasts were grown in DMEM (4.5 g/1 glucose, Gibco) supplemented with 10% FBS and penicillin/streptomycin (1×, Gibco). Western blotting. C2C12 cells were lysed in a buffer composed of 50 mM Tris, 150 mM KCl, EDTA 1 mM, NP40 1%, nicotinamide 5 mM, sodium butyrate 1 mM and protease inhibitors cocktail (Roche) at pH 7,4. Proteins were separated by SDS-PAGE and transferred onto nitrocellulose membranes. Blocking and antibody incubations were performed in 3% BSA. The following primary antibodies were used: anti-cleavage caspase 3 (Cell Signalling); Anti-γH2AX (Millipore); anti-β-actin (Sigma). All secondary antibodies were from Jackson Immunoresearch. […]

[3] = tested on: MuSCs; experiment: MuSCs transplantation from NR-treated aged donors into Mdx mice; type: in vivo; settings: MuSCs from NR-treated aged donors vs controls, Mdx recipients, 4 weeks
Protocol: MuSCs transplantation. 5,000-8,000 double-sorted MuSCs isolated from NR or normal chow diet C57B/6J mice were resuspended in 10 μl of F10 media with 20% FBS and injected directly into cardiotoxin (CTX) pre-injured tibialis anterior (TA) muscle of Mdx mice 24hrs after the injury. The CTX pre-injury was performed as described above. Recipient mice were sacrificed 4 weeks after transplantation, TA muscle were harvested and prepared for cryosection.
Histology. TA muscles were harvested from anaesthetized mice and immediately frozen in Tissue-TEK® OCT compound (PST). 8-μm cryosections were collected and fixed with 4% paraformaldehyde, which are either stained with haematoxylin/eosin (HE) or antibodies. For immunostainings, heat activated antigen retrieval was performed in pH 6.0 citrate buffer for 10 min at 65° C. After washing with PBS-0.1% tween 20 (PBST), the sections were blocked with 10% affinipure Fab goat anti mouse IgG (Jackson Immunoresearch) in PBST for 60 min and PBST containing 2% BSA and 5% goat serum for 30 min at room temperature. Primary antibodies were then applied over night at 4° C. The following antibodies were used: anti-eMHC (Developmental Studies Hybridoma Bank, DSHB, University of Iowa), anti-Pax7 (DSHB, University of Iowa), anti-Laminin (Sigma). Subsequently, the slides were washed in PBST and incubated with appropriate secondary antibodies and labeling dyes. […]

[4] = Endurance running test; type: in vivo, C57BL/6J mice; settings: aged mice, NR diet
Protocol: Endurance running test. Mice were fasted 2 hours before running on a treadmill. The exercise regimen commenced at a speed of 9 cm/s with an inclination of 5 degrees. […] Mice were considered to be exhausted, and removed from the treadmill, following the accumulation of 5 or more shocks (0.1 mA) per minute for two consecutive minutes. The distance traveled and time before exhaustion is registered as maximal running distance and period.

[5] = MuSCs from NR-treated mice cultured ex vivo for three generations

## NC(=O)c1ccc[n+]([C@@H]2O[C@H](CO)[C@@H](O)[C@H]2O)c1 [NR, nicotinamide riboside]
[1]; [5]
  cleaved caspase-3 (CASP3) immunostaining: reductions
  γH2AX positive nuclei: reductions
[1]; freshly isolated MuSCs from aged mice, NR diet, FIG. 4A,B
  γH2AX positive nuclei: staining was reduced
[1]; freshly sorted MuSCs from aged mice, NR diet
  β-galactosidase staining (senescence): reduction of the nuclear damage response was confirmed
[2]
  expression of cell senescence and apoptosis markers (γH2AX, cleaved caspase3): reduced the expression of cell senescence and apoptosis markers
[3]
  replenishment of MuSC compartment after transplantation: more effectively replenished the MuSC compartment
[3]; FIG. 3N
  myogenesis of dystrophin-positive myofibers after transplantation: stimulated myogenesis of dystrophin-positive myo fibers
[4]; FIG. 3E
  maximal running distances: improvements
[4]; FIG. 3F
  maximal running times: improvements

From patent publication US10905704B2, “Agents and methods using thereof for the prevention and treatment of stem cell muscle disorders” (ECOLE POLYTECHNIQUE FEDERALE DE LAUSANNE (EPFL), priority 2015, dated 2021)
